Earlier results in US20230081296A1, “STABLE NON-AQUEOUS COMPOSITIONS OF PLANTS EXTRACTS AND METHODS OF MAKING THE SAME” (Nulixir Inc., priority 2021, published 2023).

Details: reference phases water and n-octanol; categorization assumed at pH = 7 unless stated otherwise

| Molecule | logP |
| --- | --- |
| COc1cc2c(c(OC)c1OC)-c1c(cc3c(c1OC)OCO3)CC(C)C(C)C2 (single isomer, unassigned; (-)) [(-)-schisandrin B] | ~4 |
| COc1cc(/C=C/c2ccccc2)oc(=O)c1 [5,6-dehydrokawain] | ~2.9 |
| COC1=CC(=O)OC(/C=C/c2ccc(OC)cc2)C1 (centres unmarked) [5,6-dihydroyangonin] | ~2.5 |
| CC1=C(CO)C(=O)O[C@@H]([C@@H](C)[C@H]2CC[C@H]3[C@@H]4C[C@H](Cl)[C@]5(O)[C@@H](O)C=CC(=O)[C@]5(C)[C@H]4CC[C@]23C)C1 [6a-chloro-5b-hydroxywithaferin A] | ~3.2 |
| COC1=CC(=O)O[C@@H](CCc2ccc3c(c2)OCO3)C1 [7,8-dihydromethysticin] | ~2.2 |
| COc1ccc(CCc2cc(OC)cc(=O)o2)cc1 [7,8-dihydroyangonin] | ~2.9 |
| COc1cc(/C=C\c2ccc(OC)c(O)c2)oc(=O)c1 [11-hydroxyyangonin] | ~2.2 |
| COc1cc2c(c(OC)c1OC)-c1c(cc(OC)c(OC)c1OC)C[C@](C)(O)[C@@H](C)C2 [(+)-schisandrin] | ~5 |
| COc1cc2c(c(OC)c1OC)-c1c(cc(OC)c(OC)c1OC)C[C@H](C)[C@H](C)C2 [(-)-schisandrin A] | ~3.6 |
| CC(/C=C/C=C(\C)C(=O)O[C@@H]1O[C@H](CO[C@@H]2O[C@H](CO)[C@@H](O)[C@H](O)[C@H]2O)[C@@H](O)[C@H](O)[C@H]1O)=C\C=C\C=C(C)\C=C\C=C(/C)C(=O)O[C@@H]1O[C@H](CO[C@@H]2O[C@H](CO)[C@@H](O)[C@H](O)[C@H]2O)[C@@H](O)[C@H](O)[C@H]1O [alpha -crocin] | ~-1.5 |
| COc1ccc([C@@]23CCC(=O)C[C@@H]2N(C)CC3)cc1OC [mesembrine] | ~1.5 |
| COc1nc2c(c(=O)n1C)n(C)c(=O)n2C [methylliberine] | ~-0.083 |
| CC(=O)OC1C=CC(=O)N(C(=O)CCc2ccccc2)C1 (centres unmarked) [pipermethystine] | ~1.8 |
| COc1cc([C@H]2Oc3cc(O)c4c(=O)c(O)c(-c5ccc(O)cc5)oc4c3O[C@@H]2CO)ccc1O [rhodiolin] | ~2 |
| COc1cc2c(c(OC)c1OC)-c1c(cc(OC)c(OC)c1OC)C[C@](C)(O)[C@@H](C)C2 [schisandrol A] | ~3.4 |
| N#C[C@@]1(O[C@@H]2O[C@H](CO)[C@@H](O)[C@H](O)[C@H]2O)C=C[C@@H](O)C1 [tetraphyllin B] | ~-2.5 |
| (-)-schisandrin C | ~3.5 |
| (R)-kawain | ~2.7 |
| bacopaside B | ~2.8 |
| hericerin | ~6.4 |
| herinacine A | ~2.5 |
| schisandroside C | ~1.6 |
| tortuosomine | ~3 |
